Measured values as given in paper PMC7979765, “trans-Translation inhibitors bind to a novel site on the ribosome and clear Neisseria gonorrhoeae in vivo” (Nature Communications, 2021).
Values joined by “and” are separate entries in the source; they are usually repeats but may differ in a detail not shown here. Equal values may be shown once. Read-outs that look alike come from different tables or passages of the source.

Assay: Pharmacokinetic analyses in mice (PO suspension, IV, SC)
Format: in vivo, mouse
Experimental: Female CD-1 mice as above were fasted for 2 h prior, and 4 h after dosing. […] […], 3 mice from each group were euthanized by CO2 inhalation, blood was collected by cardiac puncture into K2EDTA collection tubes, and protein was precipitated and analysed by LC/MS-MS for plasma concentrations of MBX-4132. Data were analysed using WinNonLin.
[…] At 0.083, 0.5, 1, 4, 8 and 24 h post dose, blood was collected from 3 mice/group by tail vein or facial bleed into K2EDTA collection tubes, and protein was precipitated and analysed by LC/MS-MS for plasma concentrations of MBX-4132. Sampling was performed serially, with each mouse contributing sample at all time points. Data were analysed using WinNonLin.

**Q.** With O=C(Nc1nnc(-c2ccc(F)cc2)o1)N1CCc2ccccc2C1 [MBX 4132] as the compound, how does the “MBX 4132 Concentrations in Mouse Plasma” value (IV (10 mg/kg), 0.083 hrs, individual animals, 10 mg/kg) read?
**A.** 58700 ng/mL and 65700 ng/mL

**Q.** What about the “MBX 4132 Concentrations in Mouse Plasma” value (IV (10 mg/kg), 0.5 hrs, individual animals, 10 mg/kg) of the same compound?
**A.** 36200 ng/mL and 32000 ng/mL

**Q.** What about the “MBX 4132 Concentrations in Mouse Plasma” value (IV (10 mg/kg), 1 hrs, individual animals, 10 mg/kg) of the same compound?
**A.** 22900 ng/mL and 20200 ng/mL

**Q.** What about the “MBX 4132 Concentrations in Mouse Plasma” value (IV (10 mg/kg), 4 hrs, individual animals, 10 mg/kg) of the same compound?
**A.** 8580 ng/mL and 6390 ng/mL

**Q.** And the “MBX 4132 Concentrations in Mouse Plasma” value (IV (10 mg/kg), 8 hrs, individual animals, 10 mg/kg)?
**A.** 3980 ng/mL and 3290 ng/mL

**Q.** What about the “MBX 4132 Concentrations in Mouse Plasma” value (IV (10 mg/kg), 24 hrs, individual animals, 10 mg/kg) of the same compound?
**A.** 293 ng/mL and 149 ng/mL and 67.4 ng/mL

**Q.** And the “MBX 4132 Concentrations in Mouse Plasma” value (PO (10 mg/kg susp.), 0.25 hrs, individual animals, 10 mg/kg)?
**A.** 15389 ng/mL and 9102 ng/mL

**Q.** And the “MBX 4132 Concentrations in Mouse Plasma” value (PO (10 mg/kg susp.), 0.5 hrs, individual animals, 10 mg/kg)?
**A.** 16019 ng/mL and 12183 ng/mL

**Q.** And the “MBX 4132 Concentrations in Mouse Plasma” value (PO (10 mg/kg susp.), 1 hrs, individual animals, 10 mg/kg)?
**A.** 16437 ng/mL and 15902 ng/mL

**Q.** And the “MBX 4132 Concentrations in Mouse Plasma” value (PO (10 mg/kg susp.), 2 hrs, individual animals, 10 mg/kg)?
**A.** 10997 ng/mL and 18067 ng/mL

**Q.** And the “MBX 4132 Concentrations in Mouse Plasma” value (PO (10 mg/kg susp.), 4 hrs, individual animals, 10 mg/kg)?
**A.** 13379 ng/mL and 14121 ng/mL

**Q.** And the “MBX 4132 Concentrations in Mouse Plasma” value (PO (10 mg/kg susp.), 8 hrs, individual animals, 10 mg/kg)?
**A.** 11230 ng/mL and 9243 ng/mL

**Q.** What about the “MBX 4132 Concentrations in Mouse Plasma” value (PO (10 mg/kg susp.), 24 hrs, individual animals) of the same compound?
**A.** <62.5 ng/mL

**Q.** What about the “MBX 4132 Concentrations in Mouse Plasma” value (PO (10 mg/kg), 0.083 hrs, individual animals, 10 mg/kg) of the same compound?
**A.** 809 ng/mL and 1080 ng/mL and 1900 ng/mL

**Q.** What about the “MBX 4132 Concentrations in Mouse Plasma” value (PO (10 mg/kg), 0.5 hrs, individual animals, 10 mg/kg) of the same compound?
**A.** 881 ng/mL and 1440 ng/mL and 1770 ng/mL

**Q.** What about the “MBX 4132 Concentrations in Mouse Plasma” value (PO (10 mg/kg), 1 hrs, individual animals, 10 mg/kg) of the same compound?
**A.** 1490 ng/mL and 1730 ng/mL

**Q.** And the “MBX 4132 Concentrations in Mouse Plasma” value (PO (10 mg/kg), 4 hrs, individual animals, 10 mg/kg)?
**A.** 1960 ng/mL and 2880 ng/mL

**Q.** What about the “MBX 4132 Concentrations in Mouse Plasma” value (PO (10 mg/kg), 8 hrs, individual animals, 10 mg/kg) of the same compound?
**A.** 4940 ng/mL and 6040 ng/mL

**Q.** And the “MBX 4132 Concentrations in Mouse Plasma” value (PO (10 mg/kg), 24 hrs, individual animals, 10 mg/kg)?
**A.** 66.5 ng/mL and 26.0 ng/mL and 81.5 ng/mL

**Q.** And the “MBX 4132 Concentrations in Mouse Plasma” value (SC (10 mg/kg), 0.083 hrs, individual animals, 10 mg/kg)?
**A.** 738 ng/mL and 530 ng/mL and 1090 ng/mL

**Q.** And the “MBX 4132 Concentrations in Mouse Plasma” value (SC (10 mg/kg), 0.5 hrs, individual animals, 10 mg/kg)?
**A.** 3760 ng/mL and 4140 ng/mL

**Q.** And the “MBX 4132 Concentrations in Mouse Plasma” value (SC (10 mg/kg), 1 hrs, individual animals, 10 mg/kg)?
**A.** 3190 ng/mL and 3390 ng/mL

**Q.** What about the “MBX 4132 Concentrations in Mouse Plasma” value (SC (10 mg/kg), 4 hrs, individual animals, 10 mg/kg) of the same compound?
**A.** 2890 ng/mL and 2390 ng/mL

**Q.** And the “MBX 4132 Concentrations in Mouse Plasma” value (SC (10 mg/kg), 8 hrs, individual animals, 10 mg/kg)?
**A.** 2800 ng/mL and 2480 ng/mL

**Q.** And the “MBX 4132 Concentrations in Mouse Plasma” value (SC (10 mg/kg), 24 hrs, individual animals, 10 mg/kg)?
**A.** 599 ng/mL and 627 ng/mL

**Q.** What about the “MBX 4132 Concentrations in Mouse Plasma” value (SC (25 mg/kg), 0.083 hrs, individual animals, 25 mg/kg) of the same compound?
**A.** 1190 ng/mL and 2170 ng/mL

**Q.** What about the “MBX 4132 Concentrations in Mouse Plasma” value (SC (25 mg/kg), 0.5 hrs, individual animals, 25 mg/kg) of the same compound?
**A.** 3170 ng/mL and 5250 ng/mL and 6610 ng/mL

**Q.** And the “MBX 4132 Concentrations in Mouse Plasma” value (SC (25 mg/kg), 1 hrs, individual animals, 25 mg/kg)?
**A.** 5270 ng/mL and 5450 ng/mL

**Q.** What about the “MBX 4132 Concentrations in Mouse Plasma” value (SC (25 mg/kg), 4 hrs, individual animals, 25 mg/kg) of the same compound?
**A.** 3050 ng/mL and 3600 ng/mL

**Q.** What about the “MBX 4132 Concentrations in Mouse Plasma” value (SC (25 mg/kg), 8 hrs, individual animals, 25 mg/kg) of the same compound?
**A.** 3850 ng/mL and 4860 ng/mL

**Q.** What about the “MBX 4132 Concentrations in Mouse Plasma” value (SC (25 mg/kg), 24 hrs, individual animals, 25 mg/kg) of the same compound?
**A.** 2190 ng/mL and 1680 ng/mL

**Q.** And the concentration at 24 h (female, CD-1, mouse, in vivo, iv, 10 mg/kg, IV (10 mg/kg), 24 hrs, mean of 3 animals, read-out: MBX 4132 Concentrations in Mouse Plasma, Mean)?
**A.** 170 ng/mL

**Q.** And the concentration at 0.25 h (female, CD-1, mouse, in vivo, po, 10 mg/kg, PO (10 mg/kg susp.), 0.25 hrs, individual animals, read-out: MBX 4132 Concentrations in Mouse Plasma)?
**A.** 14300 ng/mL

**Q.** What about the concentration at 0.25 h (female, CD-1, mouse, in vivo, po, 10 mg/kg, PO (10 mg/kg susp.), 0.25 hrs, mean of 3 animals, read-out: MBX 4132 Concentrations in Mouse Plasma, Mean) of the same compound?
**A.** 12900 ng/mL

**Q.** What about the concentration at 0.5 h (female, CD-1, mouse, in vivo, po, 10 mg/kg, PO (10 mg/kg susp.), 0.5 hrs, individual animals, read-out: MBX 4132 Concentrations in Mouse Plasma) of the same compound?
**A.** 13900 ng/mL

**Q.** What about the concentration at 0.5 h (female, CD-1, mouse, in vivo, po, 10 mg/kg, PO (10 mg/kg susp.), 0.5 hrs, mean of 3 animals, read-out: MBX 4132 Concentrations in Mouse Plasma, Mean) of the same compound?
**A.** 14000 ng/mL

**Q.** And the concentration at 1 h (female, CD-1, mouse, in vivo, po, 10 mg/kg, PO (10 mg/kg susp.), 1 hrs, individual animals, read-out: MBX 4132 Concentrations in Mouse Plasma)?
**A.** 12100 ng/mL

**Q.** And the concentration at 1 h (female, CD-1, mouse, in vivo, po, 10 mg/kg, PO (10 mg/kg susp.), 1 hrs, mean of 3 animals, read-out: MBX 4132 Concentrations in Mouse Plasma, Mean)?
**A.** 14800 ng/mL

**Q.** What about the concentration at 2 h (female, CD-1, mouse, in vivo, po, 10 mg/kg, PO (10 mg/kg susp.), 2 hrs, individual animals, read-out: MBX 4132 Concentrations in Mouse Plasma) of the same compound?
**A.** 15000 ng/mL

**Q.** What about the concentration at 2 h (female, CD-1, mouse, in vivo, po, 10 mg/kg, PO (10 mg/kg susp.), 2 hrs, mean of 3 animals, read-out: MBX 4132 Concentrations in Mouse Plasma, Mean) of the same compound?
**A.** 14700 ng/mL

**Q.** What about the concentration at 4 h (female, CD-1, mouse, in vivo, po, 10 mg/kg, PO (10 mg/kg susp.), 4 hrs, individual animals, read-out: MBX 4132 Concentrations in Mouse Plasma) of the same compound?
**A.** 13300 ng/mL

**Q.** What about the concentration at 4 h (female, CD-1, mouse, in vivo, po, 10 mg/kg, PO (10 mg/kg susp.), 4 hrs, mean of 3 animals, read-out: MBX 4132 Concentrations in Mouse Plasma, Mean) of the same compound?
**A.** 13600 ng/mL

**Q.** What about the concentration at 8 h (female, CD-1, mouse, in vivo, po, 10 mg/kg, PO (10 mg/kg susp.), 8 hrs, individual animals, read-out: MBX 4132 Concentrations in Mouse Plasma) of the same compound?
**A.** 9290 ng/mL
